In EPA's ToxRefDB 2:

What was measured:
[1] = test system: rabbit; details: Prenatal developmental toxicity study, new zealand white, Oral, Gavage/Intubation, dose end: 19 GD, group: maternal
[2] = test system: rat; details: Prenatal developmental toxicity study, sprague dawley, Oral, Gavage/Intubation, dose end: 15 GD
[3] = test system: mouse; details: Carcinogenicity, cd1, Oral, Feed, dose end: 78 week, group: systemic
[4] = test system: rat; details: Subchronic inhalation toxicity, sprague dawley, Whole-Body, dose end: 13 week
[5] = test system: rat; details: Neurotoxicity screening battery; sprague dawley; Oral; Feed; dose end: 13 week; group: cannot be grouped; cholinesterase / cholinesterase / cholinesterase / plasma cholinesterase (che) + systemic / in life observation / food consumption / food …
[6] = test system: rabbit; details: Prenatal developmental toxicity study, New Zealand White, Oral, Gavage/Intubation, dose end: 19 GD, group: maternal
[7] = test system: rat; details: Subchronic oral toxicity in rodents, sprague dawley, Gavage/Intubation, dose end: 90 day
[8] = test system: rat; details: Prenatal developmental toxicity study, sprague dawley, Oral, Gavage/Intubation, dose end: 15 GD; remark: listed apart in the source
[9] = test system: rat; details: Subchronic dermal toxicity, sprague dawley, Topical, dose end: 91 day
[10] = test system: rat; details: Subchronic oral toxicity in rodents, sprague dawley, Gavage/Intubation, dose end: 90 day, group: systemic
[11] = test system: rat; details: Combined chronic toxicity/carcinogenicity, sprague dawley, Oral, Feed, dose end: 104 week
[12] = test system: rabbit; details: Prenatal developmental toxicity study, new zealand white, Oral, Gavage/Intubation, dose end: 19 GD, group: maternal; remark: listed apart in the source
[13] = test system: rat; details: Prenatal developmental toxicity study, sprague dawley, Oral, Gavage/Intubation, dose end: 15 GD; remark: listed apart in the source
[14] = systemic / in life observation / clinical signs / defecation + systemic / in life observation / food consumption / food consumption + …
[15] = group: developmental, developmental / developmental malformation / bone / incomplete ossification + developmental / developmental malformation / bone / wavy
[16] = group: maternal, systemic / in life observation / body weight / body weight gain
[17] = systemic / pathology microscopic / thyroid gland / vacuolization + systemic / pathology microscopic / thyroid gland / hypertrophy
[18] = systemic / pathology microscopic / thyroid gland / vacuolization + systemic / pathology microscopic / thyroid gland / hypertrophy + systemic…
[19] = group: cholinesterase, cholinesterase / cholinesterase / cholinesterase / brain cholinesterase (che)
[20] = group: cholinesterase, cholinesterase / cholinesterase / cholinesterase / brain cholinesterase (che) + cholinesterase / cholinesterase / cholinesterase / …
[21] = group: systemic, systemic / clinical chemistry / glucose / glucose + systemic / clinical chemistry / alanine aminotransferase (alt/sgpt) / alanine …
[22] = systemic / in life observation / body weight / body weight gain + systemic / in life observation / food consumption / food consumption + …
[23] = group: cholinesterase, cholinesterase / cholinesterase / cholinesterase / cholinesterase (che)
[24] = group: systemic, systemic / in life observation / clinical signs / salivation + systemic / pathology gross / liver / misshapen
[25] = group: systemic, systemic / in life observation / clinical signs / salivation + systemic / pathology gross / liver / misshapen + systemic / pathology …
[26] = group: developmental, developmental / developmental landmark / [other] / [other]
[27] = group: maternal, systemic / in life observation / body weight / body weight gain + systemic / in life observation / clinical signs / salivation + systemic / …
[28] = group: cholinesterase, cholinesterase / cholinesterase / cholinesterase / plasma cholinesterase (che)
[29] = group: cholinesterase, cholinesterase / cholinesterase / cholinesterase / plasma cholinesterase (che) + cholinesterase / cholinesterase / cholinesterase / …
[30] = group: systemic, systemic / pathology microscopic / skin / hyperkeratosis + systemic / clinical chemistry / calcium / calcium + systemic / clinical chemistry…
[31] = group: systemic, systemic / pathology microscopic / skin / hyperkeratosis + systemic / clinical chemistry / glucose / glucose + systemic / in life …
[32] = group: cholinesterase, cholinesterase / cholinesterase / cholinesterase / erythrocyte cholinesterase (che) + cholinesterase / cholinesterase / cholinesterase / …
[33] = group: systemic, systemic / in life observation / body weight / body weight gain
[34] = group: systemic, systemic / in life observation / body weight / body weight gain + systemic / clinical chemistry / cholesterol / cholesterol + systemic / …
[35] = reproductive / reproductive performance / resorptions / resorptions + systemic / in life observation / body weight / body weight gain + …
[36] = group: developmental, developmental / developmental malformation / bone / unossified + systemic / in life observation / body weight / fetal weight
[37] = group: maternal, systemic / in life observation / body weight / body weight gain + systemic / in life observation / food consumption / food consumption + …

Q: How did the LEL [1, 14] turn out when `CCCCNC(=O)OCC#CI` [3-Iodo-2-propynyl-N-butylcarbamate] was run?
A: 20 mg/kg/day

Q: And the NEL [1, 14]?
A: 10 mg/kg/day

Q: And the NOAEL [1, 14]?
A: 20 mg/kg/day

Q: And the LOAEL ([1]; systemic / in life observation / clinical signs / defecation + systemic / pathology gross / stomach / discolored + reproductive / …)?
A: 40 mg/kg/day

Q: What about the LEL [2, 15] of the same compound?
A: 125 mg/kg/day

Q: And the LOAEL [2, 15]?
A: 125 mg/kg/day

Q: What about the NEL [2, 15] of the same compound?
A: 50 mg/kg/day

Q: And the NOAEL [2, 15]?
A: 50 mg/kg/day

Q: What about the LEL [2, 16] of the same compound?
A: 125 mg/kg/day

Q: And the LOAEL [2, 16]?
A: 125 mg/kg/day

Q: What about the NEL [2, 16] of the same compound?
A: 50 mg/kg/day

Q: What about the NOAEL [2, 16] of the same compound?
A: 50 mg/kg/day

Q: What about the LOAEL [3, 17] of the same compound?
A: 19.8 mg/kg/day

Q: And the NOAEL [3, 17]?
A: < 19.8 mg/kg/day

Q: And the LEL [3, 18]?
A: 19.8 mg/kg/day

Q: What about the NEL [3, 18] of the same compound?
A: < 19.8 mg/kg/day

Q: And the LEL [4, 19]?
A: 0.11 ppm

Q: And the LOAEL [4, 19]?
A: 0.11 ppm

Q: And the NEL [4, 20]?
A: 0.0217 ppm

Q: What about the NOAEL [4, 20] of the same compound?
A: 0.0217 ppm

Q: And the LEL ([4]; group: systemic, systemic / clinical chemistry / glucose / glucose)?
A: 0.11 ppm

Q: And the LOAEL [4, 21]?
A: > 0.54 ppm

Q: And the NEL [4, 21]?
A: 0.0217 ppm

Q: What about the NOAEL [4, 21] of the same compound?
A: ≥ 0.54 ppm

Q: And the LEL [5]?
A: 50 mg/kg/day

Q: What about the LOAEL [5] of the same compound?
A: 50 mg/kg/day

Q: What about the NEL [5] of the same compound?
A: 10 mg/kg/day

Q: What about the NOAEL [5] of the same compound?
A: 10 mg/kg/day

Q: What about the LOAEL ([6]; systemic / in life observation / body weight / body weight gain + systemic / in life observation / food consumption / food consumption) of the same compound?
A: 20 mg/kg/day

Q: And the LEL [6, 22]?
A: 20 mg/kg/day

Q: And the NEL [6, 22]?
A: 10 mg/kg/day

Q: What about the NOAEL [6, 22] of the same compound?
A: 10 mg/kg/day

Q: And the LEL [7, 23]?
A: 75 mg/kg/day

Q: What about the LOAEL [7, 23] of the same compound?
A: > 200 mg/kg/day

Q: And the NEL [7, 23]?
A: 25 mg/kg/day

Q: What about the NOAEL [7, 23] of the same compound?
A: ≥ 200 mg/kg/day

Q: What about the LOAEL [7, 24] of the same compound?
A: 25 mg/kg/day

Q: And the NOAEL [7, 24]?
A: < 25 mg/kg/day

Q: What about the LEL [7, 25] of the same compound?
A: 25 mg/kg/day

Q: And the NEL [7, 25]?
A: < 25 mg/kg/day

Q: What about the LEL [8, 26] of the same compound?
A: 250 mg/kg/day

Q: And the LOAEL [8, 26]?
A: 250 mg/kg/day

Q: And the NEL [8, 26]?
A: 75 mg/kg/day

Q: And the NOAEL [8, 26]?
A: 75 mg/kg/day

Q: What about the LEL [8, 27] of the same compound?
A: 75 mg/kg/day

Q: And the LOAEL [8, 27]?
A: 75 mg/kg/day

Q: What about the NEL [8, 27] of the same compound?
A: 25 mg/kg/day

Q: What about the NOAEL [8, 27] of the same compound?
A: 25 mg/kg/day

Q: And the NEL [9, 28]?
A: 200 mg/kg/day

Q: And the LEL [9, 29]?
A: 500 mg/kg/day

Q: What about the LOAEL [9, 29] of the same compound?
A: > 500 mg/kg/day

Q: What about the NOAEL [9, 29] of the same compound?
A: ≥ 500 mg/kg/day

Q: And the NEL [9, 30]?
A: 50 mg/kg/day

Q: And the NOAEL [9, 30]?
A: 50 mg/kg/day

Q: And the LEL [9, 31]?
A: 200 mg/kg/day

Q: What about the LOAEL [9, 31] of the same compound?
A: 200 mg/kg/day

Q: What about the NEL ([10]; systemic / in life observation / clinical signs / post-dosing rooting in bedding + systemic / organ weight / liver / relative to body weight…) of the same compound?
A: 20 mg/kg/day

Q: What about the LOAEL ([10]; systemic / organ weight / liver / relative to body weight) of the same compound?
A: 50 mg/kg/day

Q: What about the NOAEL ([10]; systemic / organ weight / liver / relative to body weight + systemic / in life observation / body weight / body weight gain + systemic / in …) of the same compound?
A: 20 mg/kg/day

Q: What about the LEL ([10]; systemic / organ weight / liver / relative to body weight + systemic / in life observation / clinical signs / post-dosing rooting in bedding…) of the same compound?
A: 50 mg/kg/day

Q: What about the LOAEL [11, 32] of the same compound?
A: > 80.1 mg/kg/day

Q: What about the NOAEL [11, 32] of the same compound?
A: ≥ 80.1 mg/kg/day

Q: And the LEL [11, 28]?
A: 20.1 mg/kg/day

Q: And the NEL [11, 28]?
A: < 20.1 mg/kg/day

Q: And the LOAEL [11, 33]?
A: 20.1 mg/kg/day

Q: What about the NOAEL [11, 33] of the same compound?
A: < 20.1 mg/kg/day

Q: What about the LEL [11, 34] of the same compound?
A: 20.1 mg/kg/day

Q: What about the NEL [11, 34] of the same compound?
A: < 20.1 mg/kg/day

Q: What about the LEL ([12]; reproductive / reproductive performance / resorptions / resorptions) of the same compound?
A: 20 mg/kg/day

Q: And the NEL [12, 35]?
A: 2 mg/kg/day

Q: And the NOAEL [12, 35]?
A: 20 mg/kg/day

Q: What about the LOAEL ([12]; systemic / in life observation / body weight / body weight gain + systemic / in life observation / clinical signs / [other] + systemic / in …) of the same compound?
A: 50 mg/kg/day

Q: And the LEL [13, 36]?
A: 250 mg/kg/day

Q: And the LOAEL [13, 36]?
A: 250 mg/kg/day

Q: And the NEL [13, 36]?
A: 75 mg/kg/day

Q: What about the NOAEL [13, 36] of the same compound?
A: 75 mg/kg/day

Q: And the LOAEL ([13]; group: maternal, systemic / in life observation / body weight / body weight gain + systemic / in life observation / food consumption / food consumption)?
A: 75 mg/kg/day

Q: And the LEL [13, 37]?
A: 75 mg/kg/day

Q: What about the NEL [13, 37] of the same compound?
A: 25 mg/kg/day

Q: And the NOAEL [13, 37]?
A: 25 mg/kg/day
